Measured values from patent US5994363A (priority 1998, dated 1999).
Several values for one entry are separate records, joined by “and”; a condition that tells them apart may be missing. Equal values may be shown once. Where a name gives a salt, the structure may show the parent alone.

What was measured:
[1] = Number of dogs acclimatized to retching/vomiting; blood pressure and heart rate (Example 2); assay type: in vivo, dog
Experimental: This study provides a different view of data recorded in Example 1.
Observations were made at three different dosage levels, 0.04, 0.1 and 0.4 mg/kg/day. No dose escalation was attempted in this study. A group of five dogs was used for tests at each dosage level. The number of dogs in each dosage group with a retching or vomiting episode in each post-administration time period was recorded for daily administration over about 180 days. Ten day averages were calculated and plotted (see FIGS. 3 through 6).
The blood pressure and heart rates of an untreated group of dogs was evaluated for comparison purposes.

[2] = 100-400 μg/kg, up to four days, primates; cited from earlier work
[3] = single bolus subcutaneous injection, mammals; cited from earlier work
[4] = Duration of vomiting and retching in dog after daily subcutaneous apomorphine HCl (Example 1); assay type: in vivo
[5] = Adverse events in escalating dose tolerance study in psychogenic male erectile dysfunction (Example 5); assay type: in vivo, human
Experimental: Example 5-Summary. This clinical study was conducted in three phases. In Phase 1 subjects were selected from among patients complaining of impotence by a thorough physiological and psychological assessment. For example, one step in the assessment process required candidates to undergo Rigiscan measurement of penile rigidity and circumference following administration of a placebo tablet in single blind fashion. Phase 2 consisted of a dose escalation (4, 6, and 8 mg tablets) administered on 4 visits. An out-patient phase was conducted as Phase 3. Patients were given apomorphine HCL tablets to use at home.
Example-5 Detailed Description (Clinical Study #94-03-01). The human study was conducted in three separate phases. Phase 1 consisted of selecting appropriate subjects and obtaining baseline information on sexual performance for each subject.
They were tested on four separate days at four separate doses (placebo and three active medication doses) with an interval of no less than six days between visits (i.e., one visit per week).
If the trial was aborted, the patient was given the choice of having Gravol 50 mg p.o. (an anti-emetic) administered at that time or enduring the adverse events as they arose. In either event, the patient was monitored by the research clinician until all side-effects had subsided. The patient was asked to return the following week for the next scheduled dose.
(§1) During the five-week, home-use phase, subjects were to attempt coitus at least once each week after taking a single APO tablet. After each attempt, the subject and their partner completed a Sexual Function questionnaire (See FIGS. 15 and 16) which was later evaluated and used for final statistical analysis.
The data was analyzed by an inspection of the reported adverse events, the given dose of apomorphine and the phase of the study, i.e., in-patient (dose escalating) or take-home (constant dose) phases.

[6] = Take-home erection results, VAS questionnaire question 1 (Example 5, Phase III); assay type: in vivo, human; conditions: for Erection Results (Maximum) Percent Change from Baseline, LSMEAN: all sites; for Erection Results (Maximum) Percent Change from Baseline, MEAN: all doses, site #1, #2, #3, #4, listed as APO
Source text: as §1
(§2) For the third phase, subjects had recorded at baseline, their satisfaction,erection, number of attempts, and successful intercourse on a VAS scale (see Tables Xa-Xc, above). Evaluateable subjects first recorded a success rate, then completed VAS for erection results and satisfaction with intercourse following take-home treatment. The success rates, as shown in Tables XVa-XVb, below, were calculated for milligrams of APO as well as for micrograms per kilogram of the patient's body weight doses (males). There were four criteria for recording a success in the take-home phase. […] Several evaluations of the data were made including the male and female responses to treatments via questionnaires (see FIGS. 15 and 16).
Tables XVIIa--XVIId, below, show the statistical results of phase III with respect to Rigiscan™ results (a and b) and intercourse satisfaction (c and d) based on question 1 and question 3, respectively, from the completed questionnaires (see FIGS. 15 and 16). […] The maximum improvement from baseline were 56% in males and 59% in females. The mean improvement were 29% in males and 34% in females. […] The mean improvements were 34% in females and 45% in males.

[7] = Penile erectile response ([…] score) with erotic and neutral videos (Example 5); assay type: in vivo, human; conditions: for Total RIGISCAN Score, Erotic 1: N = 31-36, ** significantly higher than placebo 1 and 2
Experimental: Each of the selected subjects' penile erectile response (measured with the […]™ ambulatory tumescence monitor) was evaluated using the scoring system as set out in Table IX, below.
The combining of the scores of A, B, C, and D from Table IX yields a total score for each subject. A total score of less than 16 for any individual subject indicates erectile dysfunction.
Patients not experiencing nausea or any other significant adverse effects within fifteen minutes post-dosing with APO or placebo viewed segments of standardized erotic videos to provide sexual stimulation. […] The duration of the testing session for each dose level lasted between 45 and 60 minutes.
This aim was accomplished during the first two phases of the study in which subjects were attached to the […]™ monitor. Subjects were initially treated with placebo, followed by APO 4, 6, and 8 mg. tablets with a placebo tablet randomly interspersed in the treatment.

[8] = Take-home sexual intercourse success rate (Example 5, Phase III); assay type: in vivo, human
Source text: as §1, §2

SMILES: CN1CCc2cccc3c2[C@H]1Cc1ccc(O)c(O)c1-3 [apomorphine HCl]
- daily treatment needed for 80 percent effective acclimation ([1]; 0.4 mg/kg/day s.c.): about 3 months
- net changes in blood pressure ([1]; after 5 months chronic treatment, vs untreated controls): not significantly different from the controls
- heart rate after administration ([1]; after 5 months chronic treatment, 0.04, 0.1, 0.4 mg/kg/day): tachycardia sometimes occurs
- bradycardia ([1]; initially, lost by acclimation): badycardia was reported in some subjects
- adverse effects of multiple doses [2]: without major adverse effects
- tolerated dose [3]: up to 13 mg/kg
- time to acclimatization (retching and vomiting) ([4]; 0.4 mg/kg/day s.c.): about 10 days
- effect of escalation on vomiting/retching ([4]; 0.8 mg/kg/day after 21 days at 0.4 mg/kg/day): no evidence of an increase in vomiting/retching
- wash out period required to establish homeostasis ([4]; after CNS supersensitivity): 4 to 6 weeks
- effect of increasing dose by 100% of the acclimation dose on duration ([4]; after acclimation established): no corresponding increase in the duration of retching and vomiting
- movement disorders ([4]; dose reduced from 1.2 to 0.8 mg/kg/day): movement disorders were again observed
- average duration of retching/vomiting period ([4]; following daily administration): about 5 minutes
- average duration of retching/vomiting period ([4]; following initial dose): about 30 minutes
- time to acclimatization (retching and vomiting) ([4]; lower doses (0.05 mg/kg start), s.c. daily): ≤ 3 days
- effect of challenge on duration of vomiting ([4]; lower doses, after 12 days, dose 100% greater than acclimatized dose): Only a small increase in the duration of vomiting
- Total Number of Adverse Events ([5]; Phase 2 (dose escalation), 4 mg/week): 31
- Total Number of Adverse Events ([5]; Phase 2 (dose escalation), 6 mg/week): 58
- Total Number of Adverse Events ([5]; Phase 2 (dose escalation), 8 mg/week): 50
- Total Number of Adverse Events ([5]; Phase 3 (out-patient), 4 mg): 15
- Total Number of Adverse Events ([5]; Phase 3 (out-patient), 6 mg): 13
- Total Number of Adverse Events ([5]; Phase 3 (out-patient), 8 mg): 8
- overall incidence of nausea ([5]; all administered doses): less than 13%
- severe nausea cases ([5]; all doses): two
- hypotension ([5]; also bradycardia, dizziness, syncope, pallor reported): reported as an adverse event in some subjects
- Anti-Emetic In Patient, Total ([5]; in vivo): 8
- Anti-Emetic Take Home, Total ([5]; in vivo): 2
- In-Patient A.E.'s, Total ([5]; in vivo): 109
- Take-Home A.E.'s, Total ([5]; in vivo): 25
- decrease in adverse events per tablet ([5]; in vivo): ~95.6%
- frequency of side effects ([5]; in vivo): 94.2%
- incidence of vomiting ([5]; in vivo): less than 3%
- increased sweating and fatigue ([5]; in vivo): also reported
- severe hypotension and pallor ([5]; in vivo): Only single cases
- severe increased sweating ([5]; in vivo): One of the cases
- Erection Results (Maximum) Percent Change from Baseline, LSMEAN ([6]; FEMALE, 4 mg): 33.57%
- Erection Results (Maximum) Percent Change from Baseline, LSMEAN ([6]; FEMALE, 6 mg): 45.00%
- Erection Results (Maximum) Percent Change from Baseline, LSMEAN ([6]; FEMALE, 8 mg): 59.00%
- Erection Results (Maximum) Percent Change from Baseline, MEAN ([6]; FEMALE): 52.56% and 41.25% and 46.50% and 36.29%
- Erection Results (Maximum) Percent Change from Baseline, LSMEAN ([6]; MALE, 4 mg): 55.71%
- Erection Results (Maximum) Percent Change from Baseline, LSMEAN ([6]; MALE, 6 mg): 42.80%
- Erection Results (Maximum) Percent Change from Baseline, LSMEAN ([6]; MALE, 8 mg): 31.86%
- Erection Results (Maximum) Percent Change from Baseline, MEAN ([6]; MALE): 52.22% and 57.00% and 36.22% and 33.00%
- erection rigidity, mean improvement ([6]; females): 34%
- erection rigidity, maximum improvement from baseline ([6]; females (best at 8 mg)): 59%
- erection rigidity, mean improvement ([6]; males): 29%
- erection rigidity, maximum improvement from baseline ([6]; males (best at 4 mg)): 56%
- RIGISCAN score, erotic #1, comparison in words ([7]; 4 mg, Site #1): slightly lower
- Penile Measurements (Maximum Increases), LSMEAN, NEUTRAL ([7]; 4 mg, b698 all sites, b704 site #1, b710 #2, b716 #3, b722 #4, listed as APO): 8.70
- Total RIGISCAN Score, Erotic 1 ([7]; 6 mg): 17.09 ± 1.64
- Penile Measurements (Maximum Increases), MEAN, NEUTRAL ([7]; 6 mg, b699 all sites, b705 site #1, b711 #2, b717 #3, b723 #4, listed as APO): 9.60
- Total RIGISCAN Score, Erotic 1 ([7]; 8 mg): 19.84 ± 1.61
- Total RIGISCAN Score, Neutral ([7]; 8 mg, N = 41-48, **): 11.95 ± 1.37
- Penile Measurements (Maximum increase), Mean, EROTIC #1 ([7]; 8 mg, all sites, site #1, #2, #4, listed as APO): 19.84 and 15.60 and 25.00
- RIGISCAN scores, treatment effect vs second placebo in words ([7]; 4, 6, and 8 mg): most of the treatment effects were significant to highly significant compared to the second placebo
- RIGISCAN scores, treatment effect in words ([7]; 4, 6, and 8 mg vs initial placebo): significant to highly significant
- RIGISCAN scores for penile increases in words ([7]; active doses, each of four sites, neutral and erotic sequences): improved significantly
- RIGISCAN reading, effective in causing erections ([7]; all doses, erotic stimulation): greater than or equal to 15
- Sexual Intercourse Success Rate ([8]; Female, 6 mg, listed as APO): 73.3% and 73%
- Sexual Intercourse Success Rate ([8]; Female, 35-50 μg/kg): 60.0%
- Sexual Intercourse Success Rate ([8]; Female, 50-74 μg/kg, listed as APO): 82%
- Sexual Intercourse Success Rate ([8]; Female, Overall): 70.0%
- Sexual Intercourse Success Rate ([8]; Male, 6 mg, listed as APO): 73.3% and 73%
- Sexual Intercourse Success Rate ([8]; Male, 35-50 μg/kg): 80.0%
- Sexual Intercourse Success Rate ([8]; Male, 50-74 μg/kg, listed as APO): 73%
- Sexual Intercourse Success Rate ([8]; Male, Overall): 70.0%
- overall success rate ([8]; whole study, baseline rate 28%, listed as APO): 70% and 72%
